In paper PMC5863515, “Re-evaluation of Adrenocorticotropic Hormone and Melanocyte Stimulating Hormone Activation of GPR139 in Vitro” (Frontiers in Pharmacology, 2018):
Ends that are not written are not given here.

Columns and labels:
MC3R + GPR139 = MC3R + GPR139 (Homo sapiens, UniProt Q6DWJ6); assay: Calcium mobilization, HEK-293 transiently expressing MC3R + GPR139; type: cell-based; settings: MC3R + GPR139; 10 μM JNJ-3792165 or 1 μM HS-024
Experimental: Intracellular calcium mobilization was measured with the BD calcium kit (BD Bioscience, San Jose, CA, United States). The recombinant cell lines expressing MC3R, MC4R, and MC5R with and without GPR139 or Gα16 were seeded in culture media at a density of 50,000 cells/well into 96-well black/clear-bottom poly-D-lysine treated tissue culture plates. Cells were incubated overnight at 37°C and 5% CO2. Next day, culture media was removed and cells were washed with HBSS prior to dye-loading for 1 h at 37°C and 5% CO2. Agonist stimulation and intracellular calcium measurements were done on the FLIPR Tetra (Molecular Devices, Sunnyvale, CA, United States). […] EC50s were calculated by fitting a three-parameter logistic curve using least-squares non-linear regression analysis as implemented in Graphpad Prism 7.0.

MC4R + GPR139 = MC4R + GPR139 (Homo sapiens, UniProt Q6DWJ6); assay: Calcium mobilization, HEK-293 transiently expressing MC4R + GPR139; type: cell-based; settings: MC4R + GPR139; 10 μM JNJ-3792165 or 1 μM HS-024
MC4R + GPR139, sequence (P32245 whole entry partner, one chain of several): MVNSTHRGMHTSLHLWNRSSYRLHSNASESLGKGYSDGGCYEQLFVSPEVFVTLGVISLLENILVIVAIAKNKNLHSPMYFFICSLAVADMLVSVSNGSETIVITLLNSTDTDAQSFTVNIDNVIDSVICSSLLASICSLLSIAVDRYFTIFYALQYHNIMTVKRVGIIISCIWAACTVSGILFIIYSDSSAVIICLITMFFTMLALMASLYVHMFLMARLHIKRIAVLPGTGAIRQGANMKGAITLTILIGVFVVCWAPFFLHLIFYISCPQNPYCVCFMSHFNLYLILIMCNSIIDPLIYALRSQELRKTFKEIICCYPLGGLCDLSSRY
Experimental: (§1) Human MC3R (NM_019888), MC4R (NM_005912), and MC5R (NM_005913) were transiently expressed in HEK-293 cells with and without human GPR139 (KR081941) or the chimeric G-protein Gα16. All genes were cloned into pCIneo (Promega, Madison, WI, United States, #E1841). HEK-293 cells were cultured in DMEM/F12 (Gibco, Grand Island, NY, United States, #11039-021), 10% FBS (Hyclone, Logan, UT, United States, # SH300700.03), 50 units/ml penicillin and 50 μg/ml streptomycin (Mediatech, Manassas, VA, United States, #30-001-CI). Cells were seeded at 4 × 10^6 cells in 10 cm dishes and allowed to grow overnight at 37°C, 5% CO2. On the day of transfection, culture media was replaced with F12-K (Mediatech, Manassas, VA, United States, #10-025-CV), 10% FBS, 20 mM HEPES (Hyclone, Logan, UT, United States, #SH30237.01) and transfected with 15 μg DNA (10 μg MCR:5 μg pCIneo, 10 μg MCR:5 μg Gα16 or 7.5 μg MCR:7.5 μg GPR139) using FuGene HD (Promega, Madison, WI, United States, #E2311) according to manufacturer’s instructions. MC3R, MC4R, and MC5R were also transiently expressed in the following GPR139 stably expressing cell lines using the FuGENE HD method: HEK-293 GPR139 clone#33, CHO-TREx GPR139 clone#18, and SK-N-MC/CRE TREx GPR139 clone#35. Stable cell lines were established according to method previously described ([Liu et al., 2015]).
(§2) Intracellular calcium mobilization was measured with the BD calcium kit (BD Bioscience, San Jose, CA, United States). The recombinant cell lines expressing MC3R, MC4R, and MC5R with and without GPR139 or Gα16 were seeded in culture media at a density of 50,000 cells/well into 96-well black/clear-bottom poly-D-lysine treated tissue culture plates. Cells were incubated overnight at 37°C and 5% CO2. Next day, culture media was removed and cells were washed with HBSS prior to dye-loading for 1 h at 37°C and 5% CO2. Agonist stimulation and intracellular calcium measurements were done on the FLIPR Tetra (Molecular Devices, Sunnyvale, CA, United States). For receptor inhibition analysis, antagonists (1 μM HS-024 or 10 μM JNJ-3792165) were added off-line 15 min prior to agonist addition on the Tetra. For G-protein inhibitor experiments, cells were treated with 1 μM YM-254890 for 5 min prior to agonist additions on the Tetra. […] Responses in Figure 6 were normalized to its respective agonist response without antagonist. EC50s were calculated by fitting a three-parameter logistic curve using least-squares non-linear regression analysis as implemented in Graphpad Prism 7.0.

MC5R + GPR139 = MC5R + GPR139 (Homo sapiens, UniProt Q6DWJ6); assay: Calcium mobilization, HEK-293 transiently expressing MC5R + GPR139; type: cell-based; settings: MC5R + GPR139; 10 μM JNJ-3792165 or 1 μM HS-024
MC5R + GPR139, sequence (P33032 whole entry partner, one chain of several): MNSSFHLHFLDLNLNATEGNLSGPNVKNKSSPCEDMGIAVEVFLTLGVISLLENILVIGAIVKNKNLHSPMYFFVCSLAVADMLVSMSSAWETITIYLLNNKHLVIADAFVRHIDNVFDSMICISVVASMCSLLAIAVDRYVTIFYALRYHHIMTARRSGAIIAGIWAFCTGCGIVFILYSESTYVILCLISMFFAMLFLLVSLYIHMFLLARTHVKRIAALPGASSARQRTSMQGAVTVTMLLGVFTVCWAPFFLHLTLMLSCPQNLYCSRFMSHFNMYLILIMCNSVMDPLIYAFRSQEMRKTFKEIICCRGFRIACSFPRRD
Experimental: as §1, §2

[1] = system: over 50 other neurotransmitter and neuropeptide receptors including the MCRs; assay: Selectivity panel of over 50 other neurotransmitter and neuropeptide receptors; type: binding; settings: at 1 μM
GPR139 [2] = biological target: T1, GPR139 (Homo sapiens, UniProt Q6DWJ6); assay: [35S]-GTPγS binding assay, membranes of CHO-TREx cells stably expressing GPR139; type: biochemical; design: expressed in transfected cells; host or cells: CHO-TREx GPR139 clone#18
T1 sequence (Q6DWJ6 1-353): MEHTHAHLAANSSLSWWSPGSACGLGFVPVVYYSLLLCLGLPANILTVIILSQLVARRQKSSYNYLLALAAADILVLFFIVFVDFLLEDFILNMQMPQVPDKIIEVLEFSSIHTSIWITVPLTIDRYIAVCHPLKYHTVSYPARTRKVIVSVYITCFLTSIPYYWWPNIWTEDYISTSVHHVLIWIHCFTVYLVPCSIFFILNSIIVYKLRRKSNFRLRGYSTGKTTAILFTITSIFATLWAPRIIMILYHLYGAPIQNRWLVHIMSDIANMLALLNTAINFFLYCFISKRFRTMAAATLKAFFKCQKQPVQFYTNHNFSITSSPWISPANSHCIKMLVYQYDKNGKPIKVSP
Experimental: For G-protein inhibitor experiments, CHO-TRex cells stably expressing GPR139 were treated with 100 ng/ml pertussis toxin (Gi/o inhibitor) overnight prior to harvesting cells for membrane preparations. […] Reactions were terminated by rapid filtration through GF/C filterplates (Perkin-Elmer, Waltham, MA, United States) on a Cell Harvester (Perkin-Elmer, Waltham, MA, United States). Filterplates were washed three times with ice-cold wash buffer (50 mM Tris, 5 mM MgCl2) and Microscint-40 was added to each well. Bound radioactivity was measured on a Topcount scintillation counter (Perkin-Elmer, Waltham, MA, United States). […] EC50s were calculated by modeling the response associated with the logarithm of concentration as a three-parameter logistic curve with the Bottom plateau parameter fixed at 0. The fit was obtained using least-squares non-linear regression as implemented in GraphPad Prism 7.0.

GPR139 [3] = biological target: T1, GPR139; assay: [3H]JNJ-63533054 radioligand binding assay, membranes of CHO-TREx cells stably expressing human GPR139; design: expressed in transfected cells; host or cells: CHO-TREx GPR139 clone#18; settings: 10 nM radioligand; CHO-TREx GPR139 membranes; read-out: pKi, displacement of [3H]JNJ-63533054 (converted)
Experimental: Reaction was terminated by filtration through GF/C filterplates pre-treated with PEI (polyethyleneimine) followed by washes with ice-cold TE buffer. Filterplates were dried in a 60°C oven followed by addition of Microscint-0. Bound radioactivity was read on a Topcount scintillation counter. […] Half-maximal inhibitory concentrations (IC50s) of test compounds were calculated by fitting a three-parameter logistic curve using least-squares non-linear regression analysis as implemented in Graphpad Prism 7.0. The Top plateau was fixed at 100 and the Bottom was fixed at 0.

GPR139 [4] = biological target: T1, GPR139; assay: Calcium mobilization assay, antagonism at GPR139 (cell line not stated); type: cell-based; design: expressed in transfected cells; host or cells: CHO-TREx GPR139 clone#18; settings: read-out: pKb, antagonist in calcium mobilization assay (converted)
Experimental: as §2

GPR139 [5] = biological target: T1, GPR139; design: method as in Liu et al., 2015; settings: ref Liu et al., 2015; cited from earlier work
MC4R = biological target: T2, MC4R (Homo sapiens, UniProt P32245); assay: Calcium mobilization, HEK-293 transiently expressing MC4R; type: cell-based; settings: HEK293; HEK-293 transient MC4R alone; read-out: Emax, calcium release in MC4R expressing cells
T2 construct: expressed in transfected cells; host or cells: HEK-293, pCIneo, transient (FuGene HD)
T2 sequence (P32245 whole entry): as the sequence (P32245 whole entry partner, one chain of several) above
Experimental: as §1, §2

GPR139 [6] = biological target: T1, GPR139; assay: Calcium mobilization, HEK-293 cells stably expressing human GPR139; type: cell-based; design: expressed in transfected cells; settings: HEK-293 stable GPR139
Experimental: as §1, §2

MC4R + Gα16 = MC4R + Gα16 (Homo sapiens, UniProt P32245); assay: Calcium mobilization, CHO-K1 cells transiently expressing MC4R + Gα16; type: cell-based; design: expressed in transfected cells; host or cells: CHO-K1, transient; settings: data not shown
MC4R + Gα16, sequence (P32245 whole entry): as the sequence (P32245 whole entry partner, one chain of several) above

GPR139 [7] = biological target: T1, GPR139; assay: Calcium mobilization, CHO-TREx cells stably expressing human GPR139; type: cell-based; design: expressed in transfected cells; host or cells: CHO-TREx GPR139 clone#18; settings: CHO-TREx stable GPR139
GPR139 [8] = biological target: T1, GPR139; assay: Calcium mobilization, SK-N-MC/CRE cells stably expressing human GPR139; type: cell-based; design: expressed in transfected cells; host or cells: CHO-TREx GPR139 clone#18; settings: SK-N-MC/CRE stable GPR139
Experimental: as §1, §2

GPR139 [9] = biological target: T1, GPR139; design: expressed in transfected cells; host or cells: CHO-TREx GPR139 clone#18; method as in Nøhr et al. (2017b); settings: ref Nøhr et al. (2017b), cited from earlier work; for Activation of GPR139, potency range in words: CHO cells stably expressing human GPR139

MC3R + GPR139, sequence (P41968 whole entry partner, one chain of several): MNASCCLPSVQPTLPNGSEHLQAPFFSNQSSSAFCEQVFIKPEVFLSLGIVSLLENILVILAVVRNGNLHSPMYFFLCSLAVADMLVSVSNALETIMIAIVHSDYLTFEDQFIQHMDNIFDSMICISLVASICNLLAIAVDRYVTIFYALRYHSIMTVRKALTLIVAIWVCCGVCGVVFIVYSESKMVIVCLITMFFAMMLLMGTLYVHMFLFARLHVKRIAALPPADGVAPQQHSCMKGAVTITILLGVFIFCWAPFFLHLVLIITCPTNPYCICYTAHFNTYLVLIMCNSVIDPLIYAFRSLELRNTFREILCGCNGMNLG

Row | Compound | Antagonist effect on ACTH, α-MSH and β-MSH induced calcium response (MC3R + GPR139) | Antagonist effect on calcium response to GPR139 agonists (JNJ-63533054, TC-09311, L-Trp) (MC3R + GPR139) | Antagonist effect on ACTH, α-MSH and β-MSH induced calcium response (MC4R + GPR139) | Antagonist effect on calcium response to GPR139 agonists (JNJ-63533054, TC-09311, L-Trp) (MC4R + GPR139) | Antagonist effect on ACTH, α-MSH and β-MSH induced calcium response (MC5R + GPR139) | Antagonist effect on calcium response to GPR139 agonists (JNJ-63533054, TC-09311, L-Trp) (MC5R + GPR139) | Emax (MC4R) | Calcium mobilization activity, in words (GPR139 [6]) | Calcium response in CHO-K1 cells co-expressing MC4R + Gα16 (MC4R + Gα16) | Activation of GPR139, potency range in words (GPR139 [9]) | further results
1 | Cc1cccc(NC(=O)c2cc(C)n(Cc3c(Cl)cccc3Cl)n2)c1 [JNJ-3792165, 1H-pyrazole-3-carboxamide, 1-[(2,6-dichlorophenyl)methyl]-5-methyl-N-(3-methylphenyl)] | did not block | fully inhibited | did not block | fully inhibited | did not block | fully inhibited |  |  |  |  | Inhibition at any receptor other than GPR139 (selectivity panel) [1]: less than 50%; Kb (GPR139 [2]; read-out: pKb, antagonist in [35S]GTPγS assay (converted)): 39.8 nM; Ki (GPR139 [3]): 20 nM; Kb (GPR139 [4]): 126 nM
2 | N[C@@H](Cc1ccccc1)C(=O)O [L-Phe, L-phenylalanine] |  |  |  |  |  |  |  |  |  |  | EC50 (GPR139 [5]): 30000 to 300000 nM
3 | CSCC[C@H](NC(=O)[C@H](CCCNC(=N)N)NC(=O)[C@H](Cc1ccc(O)cc1)NC(=O)[C@@H]1CCCN1C(=O)CNC(=O)[C@H](CCC(=O)O)NC(=O)[C@H](CC(=O)O)NC(=O)[C@H](CCCCN)NC(=O)[C@H](CCCCN)NC(=O)[C@H](CCC(=O)O)NC(=O)[C@H](C)N)C(=O)N[C@@H](CCC(=O)O)C(=O)N[C@@H](Cc1c[nH]cn1)C(=O)N[C@@H](Cc1ccccc1)C(=O)N[C@@H](CCCNC(=N)N)C(=O)N[C@@H](Cc1c[nH]c2ccccc12)C(=O)NCC(=O)N[C@@H](CO)C(=O)N1CCC[C@H]1C(=O)N1CCC[C@H]1C(=O)N[C@@H](CCCCN)C(=O)N[C@@H](CC(=O)O)C(=O)O [β-MSH, β melanocyte stimulating hormone] |  |  |  |  |  |  | 24% | No activity was detected | calcium response | sub- to low micromolar range | Activation of GPR139 ([35S]-GTPγS incorporation), in words (GPR139 [2]; up to 30 μM): did not activate GPR139; Calcium mobilization activity, in words (GPR139 [7]): No activity was detected; Calcium mobilization activity, in words (GPR139 [8]): No activity was detected
4 | HS-024 | rightward shift of the EC50 | had no effect | reduction in both potency and efficacy | had no effect | fully blocked | reduced the efficacy |  |  |  |  | 
5 | SYSMEHFRWGKPVGKKRRPVKVYPNGAEDESAEAFPLEF [ACTH, adrenocorticotropic hormone] |  |  |  |  |  |  | 27% | did not increase calcium mobilization | calcium response | sub- to low micromolar range | Fold less potent on GPR139 than on MC4R (GPR139 [9]): 100 fold
